This is an account of results in patent publication US11738072B2, “Tumor vaccine and uses thereof” (WestVac Biopharma Co., Ltd., priority 2017, dated 2023).

The test system of the assay is A549 cells. The assay can be described thus: A549 cell death test by flow cytometry. Type of assay: cell-based. The following applies: A549, 24 h, compared with blank control group. Here is the method:
The method was the same as that in 1(1).
The method was the same as that in 1(2), wherein, the concentration of DOTAP cationic lipid was 4 μg/ml, 8 μg/ml, 16 μg/ml and 32 μg/ml respectively, and the concentration of the pMVA-1/DOTAP complex was expressed by that of DOTAP cationic lipid.
The method was the same as that in 1(3).
a. A549 cells treated by different samples in the Step (3) were washed twice with cold PBS, and resuspended with 1× binding buffer for preparing a cell suspension with a density of 1×10^6 cells/ml;
b. 100 μl of A549 cell suspension prepared in Step a was pipetted into the flow test tube;
c. 5 μl of FITC Annexin V and 5 μl of PI were added to the flow test tube in Step b, mixed gently, and incubated at room temperature for 15 min in the dark;
d. 400 μl of 1× binding buffer was added to the flow test tube in Step c and tested by flow cytometry;

Consider `CCCCCCCC/C=C\CCCCCCCC(=O)OCC(C[N+](C)(C)C)OC(=O)CCCCCCC/C=C\CCCCCCCC` (stereo not shown) [DOTAP, 1,2-dioleoyl-3-trimethylammonium-propane], for which the “Annexin-V single positive, PI single positive and PI/Annexin-V double positive cells (PI uptake and Annexin-V)” value is “did not increase significantly”.
